Results: ChEMBL document CHEMBL4825772, “Protein Degradation Inducers of Androgen Receptor by Conjugation of Antagonists Androgen Receptor and E3 Ligase Ligand” (ACS Med Chem Lett, 2021)

What follows are compounds tested against Protein cereblon/Androgen receptor (Homo sapiens, UniProt P10275+Q96SW2) (assay: Protac activity at E3 ubiquitin ligase/androgen receptor in human LNCaP cells assessed as induction of androgen receptor degradation incubated for overnight by sandwich ELISA).
Type: cell-based

Protein cereblon/Androgen receptor, sequence (P10275 whole entry): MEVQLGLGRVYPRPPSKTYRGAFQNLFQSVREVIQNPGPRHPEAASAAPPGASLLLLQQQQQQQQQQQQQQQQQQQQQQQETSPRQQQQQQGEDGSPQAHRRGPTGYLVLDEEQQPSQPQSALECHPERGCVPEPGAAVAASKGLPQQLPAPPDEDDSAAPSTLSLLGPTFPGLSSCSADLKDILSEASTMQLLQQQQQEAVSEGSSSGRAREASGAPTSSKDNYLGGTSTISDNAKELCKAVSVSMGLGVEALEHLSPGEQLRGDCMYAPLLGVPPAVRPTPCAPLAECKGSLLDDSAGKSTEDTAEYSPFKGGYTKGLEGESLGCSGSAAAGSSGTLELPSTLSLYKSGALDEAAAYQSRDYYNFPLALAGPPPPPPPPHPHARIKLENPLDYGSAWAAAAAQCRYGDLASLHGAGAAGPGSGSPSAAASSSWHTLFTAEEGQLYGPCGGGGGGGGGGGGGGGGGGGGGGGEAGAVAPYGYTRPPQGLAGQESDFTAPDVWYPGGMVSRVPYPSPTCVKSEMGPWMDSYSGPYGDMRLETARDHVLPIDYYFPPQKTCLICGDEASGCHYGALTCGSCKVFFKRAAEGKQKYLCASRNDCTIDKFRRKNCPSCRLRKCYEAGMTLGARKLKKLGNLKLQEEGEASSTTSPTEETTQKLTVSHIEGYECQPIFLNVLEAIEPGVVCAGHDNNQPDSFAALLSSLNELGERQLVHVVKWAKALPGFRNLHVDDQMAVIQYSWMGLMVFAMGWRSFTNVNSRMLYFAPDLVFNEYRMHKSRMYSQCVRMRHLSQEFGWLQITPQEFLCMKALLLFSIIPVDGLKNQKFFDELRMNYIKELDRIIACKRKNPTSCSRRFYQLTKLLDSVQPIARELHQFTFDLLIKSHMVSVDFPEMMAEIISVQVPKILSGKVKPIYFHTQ
Protein cereblon/Androgen receptor, sequence (Q96SW2 whole entry): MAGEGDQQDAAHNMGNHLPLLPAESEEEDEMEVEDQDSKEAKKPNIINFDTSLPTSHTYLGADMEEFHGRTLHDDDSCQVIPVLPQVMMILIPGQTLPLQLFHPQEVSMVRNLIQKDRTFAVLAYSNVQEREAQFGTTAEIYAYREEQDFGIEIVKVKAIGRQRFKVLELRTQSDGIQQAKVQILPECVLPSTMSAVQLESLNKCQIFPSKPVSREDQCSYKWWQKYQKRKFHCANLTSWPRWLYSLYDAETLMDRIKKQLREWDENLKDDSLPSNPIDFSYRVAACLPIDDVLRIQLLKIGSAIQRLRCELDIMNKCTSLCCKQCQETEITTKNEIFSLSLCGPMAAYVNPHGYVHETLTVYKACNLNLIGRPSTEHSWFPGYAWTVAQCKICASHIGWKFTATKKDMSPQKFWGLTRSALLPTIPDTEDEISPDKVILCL

Compound	DC50
CN(C1CCN(C(=O)c2ccc(Nc3ncnc4c3CCN(c3ccc(C#N)c(Cl)c3)C4)nc2F)CC1)C1CCN(c2cc3c(cc2F)C(=O)N(C2CCC(=O)NC2=O)C3=O)CC1 (configuration not stated)	16.6 nM
N#Cc1ccc(N2CCc3c(ncnc3Nc3ccc(C(=O)NC4CCN(CC5CCN(c6ccc7c(c6)C(=O)N(C6CCC(=O)NC6=O)C7=O)CC5)CC4)c(F)n3)C2)cc1Cl (configuration not stated)	8.5 nM
N#Cc1ccc(N2CCc3c(ncnc3Nc3ccc(C(=O)N[C@H]4CC[C@H](CN5CCN(c6cc7c(cc6F)C(=O)N(C6CCC(=O)NC6=O)C7=O)CC5)CC4)c(F)n3)C2)cc1Cl (some centres not stated)	9.2 nM
C[C@H]1CN(c2ccc3c(c2)C(=O)N(C2CCC(=O)NC2=O)C3=O)CCN1C[C@H]1CC[C@H](NC(=O)c2ccc(Nc3ncnc4c3CCN(c3ccc(C#N)c(Cl)c3)C4)nc2F)CC1 (some centres not stated)	9.1 nM
CN(C1CCN(C(=O)c2ccc(Nc3ncnc4c3CCN(c3ccc(C#N)c(Cl)c3)C4)nc2F)CC1)C1CCN(c2ccc3c(c2)C(=O)N(C2CCC(=O)NC2=O)C3=O)CC1 (configuration not stated)	4.82 nM
C[C@@H]1CN(c2ccc3c(c2)C(=O)N(C2CCC(=O)NC2=O)C3=O)CCN1C[C@H]1CC[C@H](NC(=O)c2ccc(Nc3ncnc4c3CCN(c3ccc(C#N)c(Cl)c3)C4)nc2F)CC1 (some centres not stated)	5.3 nM
N#Cc1ccc(N2CCc3c(ncnc3Nc3ccc(C(=O)NC4CCN(C5CCN(c6ccc7c(c6)C(=O)N(C6CCC(=O)NC6=O)C7=O)CC5)CC4)c(F)n3)C2)cc1Cl (configuration not stated)	4.9 nM
N#Cc1ccc(N2CCc3c(ncnc3Nc3ccc(C(=O)NCCCCCCN4CCN(c5ccc6c(c5)C(=O)N(C5CCC(=O)NC5=O)C6=O)CC4)c(F)n3)C2)cc1Cl (configuration not stated)	3 nM

The remaining lines, values ahead:

DC50	Compound
2.8 nM	N#Cc1ccc(N2CCc3c(ncnc3Nc3ccc(C(=O)NCC(=O)N4CCC(CN5CCN(c6cc7c(cc6F)C(=O)N(C6CCC(=O)NC6=O)C7=O)CC5)CC4)c(F)n3)C2)cc1Cl (configuration not stated)
3.2 nM	N#Cc1ccc(N2CCc3c(ncnc3Nc3ccc(C(=O)N4CCC(CN5CCN(c6ccc7c(c6)C(=O)N(C6CCC(=O)NC6=O)C7=O)CC5)CC4)c(F)n3)C2)cc1Cl (configuration not stated)
7.7 nM	N#Cc1ccc(N2CCc3c(ncnc3Nc3ccc(C(=O)NCCC(=O)N4CCC(CN5CCN(c6cc7c(cc6F)C(=O)N(C6CCC(=O)NC6=O)C7=O)CC5)CC4)c(F)n3)C2)cc1Cl (configuration not stated)
11.6 nM	N#Cc1ccc(N2CCc3c(ncnc3Nc3ccc(C(=O)N4CCC(CN5CCN(c6cc7c(cc6F)C(=O)N(C6CCC(=O)NC6=O)C7=O)CC5)CC4)c(F)n3)C2)cc1Cl (configuration not stated)
